The record followed here is ChEMBL document CHEMBL1136464, “Array synthesis of novel lipodepsipeptide” (Bioorg Med Chem Lett, 2003).

Holding throughout (assay type): functional
The subject of assay [1] is Enterococcus faecium. The assay can be described thus: Antibacterial activity against Enterococcus faecium ATCC 49452 at 0 % serum.
In assay [2] the test system is Enterococcus faecium. The assay can be described thus: Antibacterial activity against Enterococcus faecium ATCC 49452 at 10 % serum. To be noted: ATCC 49452, Serum.
For assay [3], the system named is Enterococcus faecalis. As to the kind of experiment: Antibacterial activity against Enterococcus faecalis ATCC 6569 at 0 % serum.
For assay [4], the system named is Enterococcus faecalis. As to the kind of experiment: Antibacterial activity against Enterococcus faecalis ATCC 6569 at 10 % serum. Particulars: ATCC 6569, Serum.
For assay [5], the system named is Staphylococcus aureus. As to the kind of experiment: Antibacterial activity against methicillin-resistant staphylococcus aureus ATCC 43300 at 10 % serum.
For assay [6], the system named is Staphylococcus aureus. The assay can be described thus: Antibacterial activity against methicillin susceptible staphylococcus aureus ATCC 29213 at 0 % serum.
Assay [7] concerns Staphylococcus aureus. As to the kind of experiment: Antibacterial activity against methicillin susceptible staphylococcus aureus ATCC 29213 at 10 % serum.
The test system of assay [8] is Staphylococcus aureus. The assay can be described thus: Antibacterial activity against methicillin-resistant staphylococcus aureus ATCC 43300 at 0 % serum.

The structures appear in SMILES notation. Values after ≈ are worked out from the molar mass of the structure shown.

`CCCCCCCCCC(=O)N[C@@H](Cc1c[nH]c2ccccc12)C(=O)N[C@H](CC(N)=O)C(=O)N[C@@H](CCO)C(=O)N[C@@H]1C(=O)NCC(=O)N[C@@H](CCCNCc2ccc(S(=O)(=O)N3CCN(c4ccccc4)CC3)cc2)C(=O)N[C@@H](CC(=O)O)C(=O)N[C@H](C)C(=O)N[C@@H](CC(=O)O)C(=O)NCC(=O)N[C@H](CO)C(=O)N[C@@H]([C@H](C)CC(=O)O)C(=O)N[C@@H](CC(=O)c2ccccc2N)C(=O)O[C@@H]1C`: the MIC (usually the smallest concentration in the dilution series that meets the test's criterion for growth inhibition) in the assay with Enterococcus faecium [1] worked out at 1.56 µg/mL (≈ 0.812 µM); in the assay with Enterococcus faecium [2] it was 12.5 µg/mL (≈ 6.51 µM); in the assay with Enterococcus faecalis [3], 0.78 µg/mL (≈ 0.406 µM); with Enterococcus faecalis [4], 6.25 µg/mL (≈ 3.25 µM); with Staphylococcus aureus [5] it was 0.78 µg/mL (≈ 0.406 µM); against Staphylococcus aureus [6], 0.39 µg/mL (≈ 0.203 µM). Further, the values for the MIC against Staphylococcus aureus [7] and with Staphylococcus aureus [8] were 3.13 µg/mL (≈ 1.63 µM) and 0.78 µg/mL (≈ 0.406 µM), respectively.

In the case of `CCCCCCCCCC(=O)N[C@@H](Cc1c[nH]c2ccccc12)C(=O)N[C@H](CC(N)=O)C(=O)N[C@@H](CCO)C(=O)N[C@@H]1C(=O)NCC(=O)N[C@@H](CCCNCc2ccc(/C=C/C(=O)N3CCN(c4ccc(Cl)c(Cl)c4)CC3)cc2)C(=O)N[C@@H](CC(=O)O)C(=O)N[C@H](C)C(=O)N[C@@H](CC(=O)O)C(=O)NCC(=O)N[C@H](CO)C(=O)N[C@@H]([C@H](C)CC(=O)O)C(=O)N[C@@H](CC(=O)c2ccccc2N)C(=O)O[C@@H]1C`, the MIC was 1.56 µg/mL (≈ 0.788 µM) in the assay with Enterococcus faecium [1]; 50 µg/mL (≈ 25.3 µM) against Enterococcus faecium [2]; 1.56 µg/mL (≈ 0.788 µM) in the assay with Enterococcus faecalis [3]; 50 µg/mL (≈ 25.3 µM) in the assay with Enterococcus faecalis [4]; 12.5 µg/mL (≈ 6.31 µM) in the assay with Staphylococcus aureus [5]; 0.78 µg/mL (≈ 0.394 µM) against Staphylococcus aureus [6]. Moreover, the minimal inhibitory concentration (MIC) in the assay with Staphylococcus aureus [7] came to 12.5 µg/mL (≈ 6.31 µM); against Staphylococcus aureus [8], 0.78 µg/mL (≈ 0.394 µM).

On to `CCCCCCCCCC(=O)N[C@@H](Cc1c[nH]c2ccccc12)C(=O)N[C@H](CC(N)=O)C(=O)N[C@@H](CCO)C(=O)N[C@@H]1C(=O)NCC(=O)N[C@@H](CCCNCc2ccc(/C=C/C(=O)N3CCN(c4ccc(F)cc4)CC3)cc2)C(=O)N[C@@H](CC(=O)O)C(=O)N[C@H](C)C(=O)N[C@@H](CC(=O)O)C(=O)NCC(=O)N[C@H](CO)C(=O)N[C@@H]([C@H](C)CC(=O)O)C(=O)N[C@@H](CC(=O)c2ccccc2N)C(=O)O[C@@H]1C`, for which the minimum inhibitory concentration (MIC) was 3.13 µg/mL (≈ 1.62 µM) with Enterococcus faecium [1]; 12.5 µg/mL (≈ 6.48 µM) with Enterococcus faecium [2]; 1.56 µg/mL (≈ 0.809 µM) in the assay on Enterococcus faecalis [3]; 12.5 µg/mL (≈ 6.48 µM) with Enterococcus faecalis [4]; 3.13 µg/mL (≈ 1.62 µM) in the assay on Staphylococcus aureus [5]; 0.39 µg/mL (≈ 0.202 µM) against Staphylococcus aureus [6]. Also, the minimal inhibitory concentration (MIC) against Staphylococcus aureus [7] came out at 6.25 µg/mL (≈ 3.24 µM); against Staphylococcus aureus [8], 0.78 µg/mL (≈ 0.404 µM).

Regarding `CCCCCCCCCC(=O)N[C@@H](Cc1c[nH]c2ccccc12)C(=O)N[C@H](CC(N)=O)C(=O)N[C@@H](CCO)C(=O)N[C@@H]1C(=O)NCC(=O)N[C@@H](CCCNCc2ccc(F)cc2F)C(=O)N[C@@H](CC(=O)O)C(=O)N[C@H](C)C(=O)N[C@@H](CC(=O)O)C(=O)NCC(=O)N[C@H](CO)C(=O)N[C@@H]([C@H](C)CC(=O)O)C(=O)N[C@@H](CC(=O)c2ccccc2N)C(=O)O[C@@H]1C`, the minimum inhibitory concentration (MIC) stood at 6.25 µg/mL (≈ 3.61 µM) in the assay with Enterococcus faecium [1]; 25 µg/mL (≈ 14.4 µM) with Enterococcus faecium [2]; 6.25 µg/mL (≈ 3.61 µM) with Enterococcus faecalis [3]; 12.5 µg/mL (≈ 7.21 µM) against Enterococcus faecalis [4]; 0.78 µg/mL (≈ 0.45 µM) in the assay with Staphylococcus aureus [5]; 1.56 µg/mL (≈ 0.9 µM) in the assay with Staphylococcus aureus [6]. Moreover, the values for the MIC in the assay on Staphylococcus aureus [7] and in the assay with Staphylococcus aureus [8] were 3.13 µg/mL (≈ 1.81 µM) and 0.78 µg/mL (≈ 0.45 µM), respectively.

On to `CCCCCCCCCC(=O)N[C@@H](Cc1c[nH]c2ccccc12)C(=O)N[C@H](CC(N)=O)C(=O)N[C@@H](CCO)C(=O)N[C@@H]1C(=O)NCC(=O)N[C@@H](CCCNCc2nccs2)C(=O)N[C@@H](CC(=O)O)C(=O)N[C@H](C)C(=O)N[C@@H](CC(=O)O)C(=O)NCC(=O)N[C@H](CO)C(=O)N[C@@H]([C@H](C)CC(=O)O)C(=O)N[C@@H](CC(=O)c2ccccc2N)C(=O)O[C@@H]1C`, for which the minimum inhibitory concentration (MIC) in the assay with Enterococcus faecium [1] is 6.24 µg/mL (≈ 3.66 µM); with Enterococcus faecium [2], 6.25 µg/mL (≈ 3.67 µM); with Enterococcus faecalis [3], 6.25 µg/mL (≈ 3.67 µM); in the assay on Enterococcus faecalis [4], 12.5 µg/mL (≈ 7.34 µM); in the assay with Staphylococcus aureus [5], 0.78 µg/mL (≈ 0.458 µM); in the assay on Staphylococcus aureus [6] it was 0.78 µg/mL (≈ 0.458 µM). Also, the minimal inhibitory concentration (MIC) with Staphylococcus aureus [7] stood at 1.56 µg/mL (≈ 0.916 µM); against Staphylococcus aureus [8] it was 0.78 µg/mL (≈ 0.458 µM).

Consider `CCCCCCCCCC(=O)N[C@@H](Cc1c[nH]c2ccccc12)C(=O)N[C@H](CC(N)=O)C(=O)N[C@@H](CCO)C(=O)N[C@@H]1C(=O)NCC(=O)N[C@@H](CCCNCc2ccc(S(=O)(=O)NCc3ccc(C(F)(F)F)cc3)cc2)C(=O)N[C@@H](CC(=O)O)C(=O)N[C@H](C)C(=O)N[C@@H](CC(=O)O)C(=O)NCC(=O)N[C@H](CO)C(=O)N[C@@H]([C@H](C)CC(=O)O)C(=O)N[C@@H](CC(=O)c2ccccc2N)C(=O)O[C@@H]1C`, for which the MIC was found to be 0.39 µg/mL (≈ 0.202 µM) against Enterococcus faecium [1]; 6.25 µg/mL (≈ 3.23 µM) against Enterococcus faecium [2]; 0.78 µg/mL (≈ 0.403 µM) with Enterococcus faecalis [3]; 6.25 µg/mL (≈ 3.23 µM) with Enterococcus faecalis [4]; 0.78 µg/mL (≈ 0.403 µM) with Staphylococcus aureus [5]; 0.78 µg/mL (≈ 0.403 µM) in the assay on Staphylococcus aureus [6]. The minimum inhibitory concentration (MIC) against Staphylococcus aureus [7] was 3.13 µg/mL (≈ 1.62 µM); against Staphylococcus aureus [8], 0.39 µg/mL (≈ 0.202 µM).

For `CCCCCCCCCC(=O)N[C@@H](Cc1c[nH]c2ccccc12)C(=O)N[C@H](CC(N)=O)C(=O)N[C@@H](CCO)C(=O)N[C@@H]1C(=O)NCC(=O)N[C@@H](CCCNCc2ccccc2F)C(=O)N[C@@H](CC(=O)O)C(=O)N[C@H](C)C(=O)N[C@@H](CC(=O)O)C(=O)NCC(=O)N[C@H](CO)C(=O)N[C@@H]([C@H](C)CC(=O)O)C(=O)N[C@@H](CC(=O)c2ccccc2N)C(=O)O[C@@H]1C`, the minimum inhibitory concentration (MIC) against Enterococcus faecium [1] amounted to 6.25 µg/mL (≈ 3.64 µM); against Enterococcus faecium [2], 12.5 µg/mL (≈ 7.29 µM); against Enterococcus faecalis [3] it was 6.25 µg/mL (≈ 3.64 µM); in the assay on Enterococcus faecalis [4], 12.5 µg/mL (≈ 7.29 µM); in the assay on Staphylococcus aureus [5], 0.78 µg/mL (≈ 0.455 µM); against Staphylococcus aureus [6] it was 0.78 µg/mL (≈ 0.455 µM). For the same compound, the MIC against Staphylococcus aureus [7] was found to be 1.56 µg/mL (≈ 0.91 µM); against Staphylococcus aureus [8] it was 0.78 µg/mL (≈ 0.455 µM).
